From ChEMBL document CHEMBL3352656 (Bioorg Med Chem Lett, 2015)

Tests used:
[1] = Volume of distribution at steady state in Wistar rat at 0.4 mg/kg, iv by HPLC-MS/MS method; type: ADME, organism-based; set-up: dose 0.4 mg/kg, route intravenous; conditions: in vivo, read-out: Vdss
[2] = Permeability from basolateral to apical side in human Caco2 cells by HPLC-MS/MS method; type: ADME, cell-based; conditions: Caco-2, read-out: permeability
[3] = Mean residence time in Wistar rat at 0.4 mg/kg, iv by HPLC-MS/MS method; type: ADME, organism-based; set-up: dose 0.4 mg/kg, route intravenous; conditions: in vivo
[4] = Oral bioavailability in Wistar rat at […] by HPLC-MS/MS method; type: ADME, organism-based; conditions: in vivo
[5] = Permeability from apical to basolateral side in human Caco2 cells by HPLC-MS/MS method; type: ADME, cell-based; conditions: Caco-2, read-out: permeability

CC(C)(C)c1cc(NC(=O)[C@@H]2CCCCN2C(=O)N2CCS(=O)(=O)CC2)no1
Vd [1]: 0.5 L/kg
Papp B→A [2]: 22 ×10⁻⁶ cm/s
MRT [3]: 36 min
bioavailability [4]: 62%
Papp A→B [5]: 20 ×10⁻⁶ cm/s
